Source: patent publication US9884032B2, “Esters of short chains fatty acids for use in the treatment of immunogenic disorders” (priority 2012, dated 2018)
Several values for one entry are separate records, joined by “and”; a condition that tells them apart may be missing. Equal values may be shown once. Entries after “also recorded” stand apart in the source; their conditions may differ. Read-outs that look alike come from different tables or passages of the source.

What was measured:
Assay type in all cases: in vivo, BALB/c mice
[1] = system: Influenza A strain HK/PR8; details: for delta Ct / flu/β-actin: lungs day 5, individual mice; for flu/β-actin: Experiment 3
[2] = system: Influenza virus strain PR8; experiment: Propionate intranasal efficacy study, influenza: lung viral load by PCR (Example 1); details: 100 mg/kg intranasally on days -3, -1, 0; day 5 post infection; compared to saline
Procedure: On day 0 all mice were infected with Influenza virus strain PR8. On day 5 post infection, mice were sacrificed, lungs isolated and viral load determined by PCR.
Female BALB/c mice were purchased from Charles River Laboratories at 8 weeks of age. […] On day 0 mice were infected with 100 PFU of Influenza strain PR8 in 30 μl of PBS solution. On day 5 post infection, mice were sacrificed and lungs were removed and placed in Tri reagent solution. Total RNA was purified from cells obtained from whole lung tissue using Tri reagent. Real time PCR was carried out according to manufacturers instructions using the quantifast SYBR green RT-PCR kit (Qiagen). The following primers Influenza matrix protein primers were used: forward 5′-[…]-3′, reverse 5′-[…]-3′. B-actin primers forward 5′-[…]-3′, reverse 5′-[…]-3′ as previously described van Elden, L. J., M. Nijhuis, P. Schipper, R. Schuurman, A. M. van Loon. 2001. Simultaneous detection of influenza viruses A and B using real-time quantitative PCR. J. Clin. Microbiol. 39: 196-200.

airway eosinophilia = experiment: Propionate intranasal efficacy study, HDM asthma: BAL differential cell counts (Example 3); details: 100 mg/kg intranasally; all treatment regimes (pretreatment; pretreatment and priming; pretreatment, priming and challenge); day 14
Procedure: On days 0, 2, 4, 7, 8 and 11 mice were exposed to 15 ug of house dust mite extract (Greer) intranasally. On day 14, all mice were sacrificed and bronchoalveolar lavage (BAL) was performed with sterile PBS. The total number of macrophages (FIG. 3B), eosinophils (FIG. 3A), lymphocytes (FIG. 3C) and neutrophils (FIG. 3D) was determined by total and differential cell counts using standard morphological and cytochemical techniques.
BAL was performed by flushing the airways three times with 1 ml PBS. Total BAL cells were counted using a Coulter Counter (IG Instruments) and spun onto glass slides using a Cytospin 2 (Shandon Southern Products, Ltd.). Cells were then stained with Diff Quick staining set (Siemens-Dade Behring). Percentages of eosinophils, macrophages, lymphocytes and neutrophils were determined microscopically using standard morphological and cytochemical criteria.
Female BALB/c mice were purchased from Charles River Laboratories at 8 weeks of age. […] On days 0, 2, 4, 7, 8 and 11 mice were exposed to 15 μg of house dust mite extract (Greer) per nasal. On day 14, all mice were sacrificed and bronchoalveolar lavage (BAL) was performed with sterile PBS. The total number of macrophages, eosinophils, lymphocytes and neutrophils was determined by total and differential cell counts using standard morphological and cytochemical techniques. […]

[3] = system: metapneumonia virus A1 6621 (MPV); details: 100 mg/kg intranasally day -1 and 0; day 5 post infection

## CCC(=O)[O-].[Na+] [sodium propionate]
[1]; Experiment 1, doses 100, 10, 1 mg/kg i.n.
  Flu titer at 1 mg/kg compared with the other doses: lowest Flu titers
[1]; Experiment 2, 0.01 mg/kg i.n. day 0, listed as NA Propionate, 0.01 mg/kg
  delta Ct: 0.05776 and 0.1427 and 0.4687 and 0.01899 and 0.2875
[1]; Experiment 2, 0.1 mg/kg i.n. day 0, listed as NA Propionate, 0.1 mg/kg
  delta Ct: 0.3178 and 0.08239 and 0.2101 and 0.01484 and 0.2815
[1]; Experiment 2, 1 mg/kg i.n. day 0, listed as NA Propionate, 1 mg/kg
  delta Ct: 0.01819 and 0.02787 and 0.08699 and 0.009033 and 0.07967
[1]; Experiment 2, 10 mg/kg i.n. day 0, listed as Na Propionate, 10 mg/kg
  delta Ct: 0.1146 and 0.03546 and 0.05123 and 0.1345
[1]; Experiment 2, 100 mg/kg i.n. day 0, listed as Na Propionate, 100 mg/kg
  delta Ct: 0.02338 and 0.01681 and 0.2248 and 0.2282
[1]; Experiment 2, dose of 0.1 mg/kg or less i.n.
  efficacy against influenza infection, dose titration: lack of efficacy
[1]; Experiment 2, doses 100 to 0.01 mg/kg i.n.
  Flu titer / efficacy at 1 mg/kg compared with the other doses: highest efficacy; also recorded: lowest Flu titer
[1]; Experiment 2, from 100 mg/kg to 1 mg/kg i.n.
  efficacy against influenza infection, dose titration: trend towards efficacy
[1]; 100 mg/kg i.n. Day 0, listed as Na Propionate, 100 mg/kg
  flu/β-actin: 0.154 and 0.244 and 0.334 and 0.303
[1]; 100 mg/kg i.n. Day +1, listed as Na Propionate, 100 mg/kg
  flu/β-actin: 0.176 and 0.277 and 0.312 and 0.217
[1]; mouse, in vivo
  optimal dose, intranasal: 1 mg/kg
[2]
  viral load in the lungs: markedly lower viral load
Airway eosinophilia
  airway eosinophilia (BAL eosinophils): statistically significant reductions
[3]
  protection against MPV infection: exhibits efficacy in the protection against MPV infection
